The IC50 is the point on the concentration scale where inhibition reaches its midpoint. Broadly, the AC50 is the concentration giving half of the maximal activity seen. In general, CC50 refers to the concentration giving 50% cytotoxicity.

Calls of active or inactive are those of the source. Some results are limits rather than exact numbers.

Experiment [1] relates to HEK293. Nature of the experiment: SAR Analysis of small molecule inhibitors of T-cell specific antigen receptor-induced NF-kB activation in a HEK-293T cell line using a luminescence assay - Set 2. [Related pubchem assays (depositor defined):AID435003, AID435012, AID489026]. The class given is functional, cell-based. As to conditions: Homo sapiens.
A further experiment concerns INS1. As to the kind of experiment: beta cell apoptosis inhibitors, cytokine rescue, dose response, luminescence, retest (AID 449756).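 Also: cell death triggered by IL-1 beta plus TNF-alpha plus IFN-gamma mixture; protective hits raise ATP signal compared with cytokine alone wells.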 The class given is functional, cell-based. The following applies: Rattus norvegicus.
Experiment [2] in a line: inhibitors of firefly luciferase expression or activity, dose response, H4 neuroglioma cells, luminescence (AID 1990). In kind it is functional, cell-based.
Experiment [3] has as its system HEK293. Nature of the experiment: cytotoxicity in HEK293T NF-kB-Luc cells, SAR follow-up, cytotoxicity control for NF-kB activator project, cell-based, resazurin fluorescence (AID 493251). The class given is functional. The following applies: Homo sapiens.
In a further experiment the test system is Vero. Nature of the experiment: cells. As to conditions: Chlorocebus sabaeus. In kind it is functional.
Experiment [4] can be described thus: Luminescence Cell-Based Dose Response HTS to Identify Inhibitors of 5'UTR Stem-Loop Driven Prion Protein mRNA Translation in H4 Neuroglioblastoma Cells. [Related pubchem assays: 1827 (Project Summary), 1813 (Primary HTS)]. In kind it is functional.
Experiment [5] is described as follows: inhibitors of SNCA 5'UTR-driven reporter translation, confirmation, H4 neuroglioma cells, luminescence (AID 1988). The class given is functional, cell-based.
Experiment [6] relates to Jurkat. As to the kind of experiment: SAR Analysis of small molecule inhibitors of T-cell specific antigen receptor-induced NF-kB activation in a Jurkat cell line using a luminescence assay - Set 2. [Related pubchem assays (depositor defined):AID435003, AID435012, AID465]. The class given is functional, cell-based. The following applies: Homo sapiens.
The target of another experiment is CAAX prenyl protease 2 (Saccharomyces cerevisiae S288c, UniProt Q03530). As to the kind of experiment: yeast Rce1 CaaX protease inhibitors, dose response, biochemical, plate reader, dry powder retest (AID 588851).
CAAX prenyl protease 2, sequence (Q03530 whole entry): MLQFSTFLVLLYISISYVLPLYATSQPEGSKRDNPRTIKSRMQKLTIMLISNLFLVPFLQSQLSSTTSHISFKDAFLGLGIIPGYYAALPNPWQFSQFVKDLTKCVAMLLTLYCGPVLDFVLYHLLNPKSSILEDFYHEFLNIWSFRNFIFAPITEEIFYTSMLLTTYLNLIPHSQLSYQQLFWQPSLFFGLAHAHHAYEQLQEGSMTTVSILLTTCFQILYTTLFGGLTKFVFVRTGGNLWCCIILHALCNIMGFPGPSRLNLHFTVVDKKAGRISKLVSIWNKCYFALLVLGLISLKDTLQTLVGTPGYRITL
Experiment [7] is described as follows: mammalian cell cytotoxicity, dose response, cytotoxicity control, plate reader, cherry-pick samples (AID 504397). In kind it is functional, cell-based.
Experiment [8] concerns the target Glycogen synthase kinase-3 alpha (Homo sapiens, UniProt P49840). Nature of the experiment: Inhibition of Human GSK-3 alpha Activity Measured in Biochemical System Using Microfluidics - 2063-06_Inhibitor_Dose_DryPowder_Activity. [Related pubchem assays (depositor defined):AID2709].
Experiment [9] addresses Glycogen synthase kinase-3 beta (Homo sapiens, UniProt P49841). Nature of the experiment: Inhibition of Human GSK-3 beta Activity Measured in Biochemical System Using Microfluidics - 2063-05_Inhibitor_Dose_DryPowder_Activity. [Related pubchem assays (depositor defined):AID2709].
A short description of experiment [10]: cytotoxicity in HEK-293T NF-kB-Luc cells, dose response, cytotoxicity control for B/T-cell NF-kB inhibitor project, cell-based, uHTS hits (AID 489019).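 Also: IC50 reflects cytotoxicity as loss of cell viability.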 In kind it is functional.
The subject of experiment [11] is Jurkat. Nature of the experiment: antigen receptor-induced NF-kB inhibitors, dose response, Jurkat, luciferase reporter, luminescence, B- and T-cell (AID 489004).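 Also: NF-kB luciferase reporter Jurkat cells stimulated with PMA plus ionomycin.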 In kind it is functional, cell-based. The following applies: Homo sapiens.
Experiment [12] concerns the target Benomyl/methotrexate resistance protein (Candida albicans, UniProt P28873). As to the kind of experiment: CaMdr1 efflux pump inhibitor potency, dose response, singleplex, Cherry Pick2 set (AID 623992). The class given is functional. The following applies: read-out: EC50_MICROM.
Experiment [13] concerns the target Multidrug resistance protein CDR1 (Candida albicans, UniProt P43071). Nature of the experiment: CaCDR1 efflux pump inhibitors in yeast, dose response, S. cerevisiae AD1-8u, singleplex, Cherry Pick1 hits (AID 588606). In kind it is functional.
For a further experiment, the target named is Keap1/Nrf2 (Homo sapiens, UniProt Q14145). As to the kind of experiment: Keap1-Nrf2 protein-protein interaction inhibitors, dose response, biochemical, fluorescence polarization, cherry-picked samples (AID 588683). Background: Polarisation of emitted light reports the rotation of a fluorescent probe.
Experiment [14] has as its target T1, Corticotropin-releasing factor receptor 2/Corticotropin-releasing factor-binding protein (Homo sapiens, UniProt P24387+Q13324).
T1 sequence (Q13324 whole entry): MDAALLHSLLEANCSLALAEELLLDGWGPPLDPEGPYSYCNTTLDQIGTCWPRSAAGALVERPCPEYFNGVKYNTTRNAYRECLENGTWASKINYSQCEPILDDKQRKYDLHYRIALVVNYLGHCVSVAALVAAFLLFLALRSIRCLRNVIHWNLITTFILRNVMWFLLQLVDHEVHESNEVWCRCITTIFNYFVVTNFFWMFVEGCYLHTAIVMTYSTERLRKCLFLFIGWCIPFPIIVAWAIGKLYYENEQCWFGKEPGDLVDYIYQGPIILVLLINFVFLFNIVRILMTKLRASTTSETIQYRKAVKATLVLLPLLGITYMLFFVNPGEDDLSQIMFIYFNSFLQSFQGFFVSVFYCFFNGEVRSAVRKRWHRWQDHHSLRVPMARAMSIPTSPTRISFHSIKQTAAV
T1 sequence (P24387 whole entry): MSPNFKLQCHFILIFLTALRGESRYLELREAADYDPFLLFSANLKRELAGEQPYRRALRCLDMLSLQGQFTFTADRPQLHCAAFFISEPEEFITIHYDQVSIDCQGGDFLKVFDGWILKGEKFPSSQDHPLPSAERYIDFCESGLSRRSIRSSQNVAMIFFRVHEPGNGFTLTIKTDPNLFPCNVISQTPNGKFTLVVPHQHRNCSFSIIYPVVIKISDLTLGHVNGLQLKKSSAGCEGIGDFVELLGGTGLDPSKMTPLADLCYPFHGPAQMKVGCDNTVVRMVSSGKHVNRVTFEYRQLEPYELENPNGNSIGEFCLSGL
Nature of the experiment: activators of CRF receptor 2 with binding protein – uHTS hits, confirmation (AID 602473). The class given is functional. The following applies: read-out: EC50_Mean.

In experiment [15] the target is Dual specificity protein kinase CLK1 (Homo sapiens, UniProt P49759). As to the kind of experiment: CLK1 kinase inhibitors, off-target check, dose response, selectivity assay for Dyrk1A inhibitor project, biochemical, cherry-picked samples (AID 588811).
Dual specificity protein kinase CLK1, sequence (P49759 whole entry): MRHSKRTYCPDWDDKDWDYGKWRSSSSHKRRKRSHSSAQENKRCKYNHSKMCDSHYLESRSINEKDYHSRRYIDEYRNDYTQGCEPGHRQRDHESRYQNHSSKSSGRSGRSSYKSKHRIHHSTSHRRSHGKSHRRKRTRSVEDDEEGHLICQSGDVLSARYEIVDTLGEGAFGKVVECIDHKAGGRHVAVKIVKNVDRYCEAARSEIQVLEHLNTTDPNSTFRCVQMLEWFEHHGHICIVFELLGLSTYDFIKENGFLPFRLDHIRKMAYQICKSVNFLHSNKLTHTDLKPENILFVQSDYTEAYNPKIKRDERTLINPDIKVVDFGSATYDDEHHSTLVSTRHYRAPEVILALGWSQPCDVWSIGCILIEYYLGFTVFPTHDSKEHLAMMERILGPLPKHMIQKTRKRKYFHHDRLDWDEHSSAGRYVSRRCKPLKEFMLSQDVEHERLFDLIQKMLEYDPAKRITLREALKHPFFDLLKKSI
The target of another experiment is Hexokinase-1 (Homo sapiens, UniProt P19367). As to the kind of experiment: HK1 enzyme inhibition by HKDC1 hits, SAR follow-up, selectivity assay for HKDC1 inhibitor project, biochemical, set 2, resazurin fluorescence coupled readout (AID 588356). In kind it is functional. Background: The colour change of resazurin is a common sign of viable cells or microbes.

The next experiment concerns the target Hexokinase HKDC1 (Homo sapiens, UniProt Q2TB90). As to the kind of experiment: HKDC1 hexokinase inhibitors, SAR follow-up, biochemical, set 2 (AID 588355). In kind it is functional.
A short description of experiment [16]: C. albicans growth with fluconazole, confirmation, fluorescence, retest (AID 2467). The class given is functional, cell-based.
Experiment [17] is described as follows: NIH-3T3 fibroblast cytotoxicity, dose response, cytotoxicity control, cell-based, fluorescence, Alamar Blue, secondary assay (AID 2327).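 Also: NIH-3T3 mouse fibroblasts cultured with fluconazole at 8 µg/mL.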 In kind it is functional.
Experiment [18] has as its target Serine/threonine-protein phosphatase (Candida dubliniensis (strain CD36 / CBS 7987 / NCPF 3949 / NRRLY-17841) (Yeast), UniProt B9W6M3). Nature of the experiment: calcineurin pathway inhibitors in yeast reporter, dose response, S. cerevisiae, CDRE-lacZ, luminescence, secondary (AID 2388).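 Also: yeast reporter cells carrying a calcineurin-responsive lacZ construct stimulated with calcium chloride; luminescent beta-galactosidase reporter signal in whole cells rather than isolated phosphatase activity; potency for inhibition where a drop in reporter signal means calcineurin blockade.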 The class given is functional, cell-based.
Experiment [19] addresses ATP-dependent molecular chaperone HSP82 (Candida albicans (strain WO-1) (Yeast), UniProt C4YTQ8). As to the kind of experiment: loss of DOC-induced GRE-beta-galactosidase reporter signal, dose response, Hsp90 inhibitor project, S. cerevisiae, luminescence (AID 2400).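 Also: beta-galactosidase luminescence from glucocorticoid response element reporter as proxy for Hsp90 function; inhibitor potency where signal loss means Hsp90 inhibition.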 In kind it is functional, cell-based.

ATP-dependent molecular chaperone HSP82, sequence (C4YTQ8 whole entry): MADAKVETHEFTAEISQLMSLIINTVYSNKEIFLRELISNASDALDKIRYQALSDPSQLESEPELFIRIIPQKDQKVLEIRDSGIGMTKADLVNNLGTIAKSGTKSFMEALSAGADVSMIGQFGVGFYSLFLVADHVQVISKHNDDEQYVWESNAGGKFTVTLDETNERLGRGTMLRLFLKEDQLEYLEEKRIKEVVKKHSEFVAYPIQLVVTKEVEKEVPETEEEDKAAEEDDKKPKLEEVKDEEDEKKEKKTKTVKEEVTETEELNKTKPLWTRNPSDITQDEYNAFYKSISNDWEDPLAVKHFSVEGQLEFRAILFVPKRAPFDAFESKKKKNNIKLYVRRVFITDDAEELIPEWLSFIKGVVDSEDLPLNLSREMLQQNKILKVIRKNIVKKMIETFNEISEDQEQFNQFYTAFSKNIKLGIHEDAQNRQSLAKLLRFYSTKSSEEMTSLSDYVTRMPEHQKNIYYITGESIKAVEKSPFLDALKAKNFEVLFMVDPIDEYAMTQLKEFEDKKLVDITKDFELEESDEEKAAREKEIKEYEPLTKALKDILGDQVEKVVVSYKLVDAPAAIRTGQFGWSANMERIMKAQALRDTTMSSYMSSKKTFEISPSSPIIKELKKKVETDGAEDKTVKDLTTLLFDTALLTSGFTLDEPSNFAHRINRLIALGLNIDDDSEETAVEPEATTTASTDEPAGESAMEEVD
Serine/threonine-protein phosphatase, sequence (B9W6M3 whole entry): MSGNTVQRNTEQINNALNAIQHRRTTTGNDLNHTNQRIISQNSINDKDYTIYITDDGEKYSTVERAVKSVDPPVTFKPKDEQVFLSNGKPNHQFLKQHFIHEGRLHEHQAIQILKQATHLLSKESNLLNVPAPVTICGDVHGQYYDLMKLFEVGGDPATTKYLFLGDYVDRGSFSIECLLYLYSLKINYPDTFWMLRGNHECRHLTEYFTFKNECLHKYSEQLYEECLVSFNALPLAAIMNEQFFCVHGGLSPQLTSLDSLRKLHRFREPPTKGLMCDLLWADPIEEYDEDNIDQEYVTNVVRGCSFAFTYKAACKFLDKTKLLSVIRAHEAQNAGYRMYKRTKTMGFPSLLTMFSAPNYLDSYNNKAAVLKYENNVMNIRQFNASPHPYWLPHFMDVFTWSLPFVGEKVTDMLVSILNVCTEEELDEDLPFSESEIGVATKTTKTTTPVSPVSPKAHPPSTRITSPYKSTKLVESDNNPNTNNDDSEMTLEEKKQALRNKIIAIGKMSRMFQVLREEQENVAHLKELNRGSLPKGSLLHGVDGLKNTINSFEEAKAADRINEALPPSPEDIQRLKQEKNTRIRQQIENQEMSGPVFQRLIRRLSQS
Benomyl/methotrexate resistance protein, sequence (P28873 whole entry): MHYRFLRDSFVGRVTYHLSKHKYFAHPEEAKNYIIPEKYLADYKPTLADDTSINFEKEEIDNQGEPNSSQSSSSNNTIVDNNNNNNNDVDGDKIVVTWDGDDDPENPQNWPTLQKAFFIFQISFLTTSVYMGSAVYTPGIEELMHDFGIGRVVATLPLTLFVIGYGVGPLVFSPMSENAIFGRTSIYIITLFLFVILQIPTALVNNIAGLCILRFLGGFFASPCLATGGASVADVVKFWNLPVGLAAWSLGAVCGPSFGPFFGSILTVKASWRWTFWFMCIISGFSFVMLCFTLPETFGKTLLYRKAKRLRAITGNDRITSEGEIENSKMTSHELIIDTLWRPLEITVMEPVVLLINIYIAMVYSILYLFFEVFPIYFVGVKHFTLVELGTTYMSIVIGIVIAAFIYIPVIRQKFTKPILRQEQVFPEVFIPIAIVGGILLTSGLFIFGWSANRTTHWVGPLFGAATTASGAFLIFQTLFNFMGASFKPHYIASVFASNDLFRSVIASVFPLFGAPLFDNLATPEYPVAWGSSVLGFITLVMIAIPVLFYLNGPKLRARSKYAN
Hexokinase HKDC1, sequence (Q2TB90 whole entry): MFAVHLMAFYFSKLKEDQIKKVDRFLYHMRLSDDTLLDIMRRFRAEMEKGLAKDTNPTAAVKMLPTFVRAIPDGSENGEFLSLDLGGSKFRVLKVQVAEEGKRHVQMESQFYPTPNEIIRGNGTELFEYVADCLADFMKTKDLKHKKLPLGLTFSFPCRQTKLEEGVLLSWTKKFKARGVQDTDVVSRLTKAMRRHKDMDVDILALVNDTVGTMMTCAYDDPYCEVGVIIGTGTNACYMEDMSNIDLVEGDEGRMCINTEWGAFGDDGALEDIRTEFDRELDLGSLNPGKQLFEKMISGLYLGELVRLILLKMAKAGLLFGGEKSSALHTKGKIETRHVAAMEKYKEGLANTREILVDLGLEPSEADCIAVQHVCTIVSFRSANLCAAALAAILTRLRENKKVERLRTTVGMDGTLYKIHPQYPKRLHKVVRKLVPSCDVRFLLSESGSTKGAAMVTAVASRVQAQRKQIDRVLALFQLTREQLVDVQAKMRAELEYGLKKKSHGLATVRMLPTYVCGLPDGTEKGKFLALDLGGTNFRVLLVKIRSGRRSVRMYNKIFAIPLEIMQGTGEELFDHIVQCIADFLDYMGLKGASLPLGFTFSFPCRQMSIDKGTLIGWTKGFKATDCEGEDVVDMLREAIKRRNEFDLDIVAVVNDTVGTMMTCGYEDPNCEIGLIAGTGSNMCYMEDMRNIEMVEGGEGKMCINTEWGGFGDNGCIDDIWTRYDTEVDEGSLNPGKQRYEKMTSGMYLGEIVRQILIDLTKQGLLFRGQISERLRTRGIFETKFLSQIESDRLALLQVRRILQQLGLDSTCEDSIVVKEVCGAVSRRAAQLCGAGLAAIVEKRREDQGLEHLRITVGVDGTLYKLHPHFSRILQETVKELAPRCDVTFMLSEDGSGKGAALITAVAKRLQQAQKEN
Glycogen synthase kinase-3 beta, sequence (P49841 whole entry): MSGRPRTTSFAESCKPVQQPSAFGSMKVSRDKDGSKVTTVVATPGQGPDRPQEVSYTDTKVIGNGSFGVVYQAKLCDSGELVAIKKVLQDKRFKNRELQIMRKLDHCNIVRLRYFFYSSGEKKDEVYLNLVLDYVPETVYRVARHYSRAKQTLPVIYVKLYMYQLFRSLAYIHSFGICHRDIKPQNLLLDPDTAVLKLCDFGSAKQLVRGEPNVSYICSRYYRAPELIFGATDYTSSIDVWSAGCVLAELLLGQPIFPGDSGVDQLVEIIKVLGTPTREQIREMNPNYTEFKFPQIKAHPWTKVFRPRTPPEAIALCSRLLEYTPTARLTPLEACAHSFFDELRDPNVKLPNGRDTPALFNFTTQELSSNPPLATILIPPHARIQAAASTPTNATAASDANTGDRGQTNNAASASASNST
Glycogen synthase kinase-3 alpha, sequence (P49840 whole entry): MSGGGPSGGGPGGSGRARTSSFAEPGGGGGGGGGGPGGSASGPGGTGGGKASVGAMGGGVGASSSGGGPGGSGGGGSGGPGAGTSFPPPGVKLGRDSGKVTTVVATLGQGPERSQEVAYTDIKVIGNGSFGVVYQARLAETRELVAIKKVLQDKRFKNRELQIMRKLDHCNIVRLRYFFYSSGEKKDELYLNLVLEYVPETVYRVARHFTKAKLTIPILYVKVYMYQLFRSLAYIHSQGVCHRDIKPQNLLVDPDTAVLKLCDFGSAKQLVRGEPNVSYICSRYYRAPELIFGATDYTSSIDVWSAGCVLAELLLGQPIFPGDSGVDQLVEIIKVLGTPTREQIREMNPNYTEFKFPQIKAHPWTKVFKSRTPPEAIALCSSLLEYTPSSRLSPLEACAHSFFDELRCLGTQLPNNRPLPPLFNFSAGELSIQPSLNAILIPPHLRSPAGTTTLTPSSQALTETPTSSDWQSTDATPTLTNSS

`CCN1CCN(c2c(Cl)cccc2NC(=O)c2ccc([N+](=O)[O-])o2)CC1`: the IC50 in the experiment with HEK293 [1] was 17.9 µM (active); in the experiment on HEK293 [3] it was 18.7 µM (active); with Jurkat [6], 10.6 µM (active). In the experiment with INS1, the AC50 was 3.68 µM (active). The EC50 was 10.6 µM (active) in experiment [2], > 120 µM (not active) in experiment [4] and 11.1 µM (active) in experiment [5]. Moreover, the CC50 in the experiment with Vero was 23.4 µM (active).
On to `Cc1cc(N2CCN(C(c3ccccc3)c3ccccc3)CC2)n2ncnc2n1`, for which the AC50 on CAAX prenyl protease 2 was 7.39 µM (active); in [7], 159 µM (active).
`Nc1nc(Nc2cccc(F)c2)nc(NCCO)c1[N+](=O)[O-]`: the AC50 in experiment [8] is 0.953 µM (active); in [9], 0.228 µM (active).
For the compound `Cc1cc(Cl)c(S(=O)(=O)N2CCCCCC2)cc1OCC(=O)NC1CCCCC1`, the IC50 (in [10]; with Jurkat [11]) was > 80 µM (inactive) throughout.
With `CCO[C@@H]1OC(C(=O)Nc2ccccc2)=C[C@H](c2ccc(Br)cc2)[C@H]1CCCO`, the figures for the EC50 in experiment [12] and in experiment [13] were 25.2 µM (active) and 11.7 µM (active), respectively.
Consider `CCN(CC)S(=O)(=O)c1ccc(C(=O)OCCN2C(=O)c3cccc4c(N5CCOCC5)ccc(c34)C2=O)cc1`, for which, on Keap1/Nrf2, the AC50 was 13.9 µM (active). In addition, the EC50 in experiment [14] is 6.47 µM (active).
For the compound `CCCNc1ncnc2ccc(-c3ccc4c(c3)OCO4)cc12`, the concentration at half-maximal activity (AC50) in experiment [15] was 0.00314 µM (active).
With `O=C(O)C(c1ccccc1)N1C(=O)c2ccccc2C1=O` (stereo not given), the IC50 at Hexokinase-1 and at Hexokinase HKDC1 was > 80 µM (inactive) throughout.
`O=[N+]([O-])c1cc(Cl)c2cccnc2c1O`: the EC50 was 0.084 µM (active) in experiment [16], 11.1 µM (active) in experiment [17], > 180 µM (inactive) in experiment [18] and 3.67 µM (active) in experiment [19].
